According to PubChem BioAssay AID2060906 (Molecular Pharmacology Branch, DTP, NCI, 2025):

Tested on: 485176-168-R4-J1-PDC complex spheroid growth
Test: Anticancer human tumor 485176-168-R4-J1-PDC patient-derived pancreatic adenocarcinoma cell line growth inhibition [RAS]
Conditions: for IC50: curve of first compound; for viability, T/C: stronger effect = lower value
In short: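 Multi-cell-type spheroids: tumor cells plus HUVEC endothelial cells and mesenchymal stem cells. RAS-pathway inhibitors were combined with targeted agents, each dosed in half-log steps down from clinical Cmax, or from 10 microM when Cmax was unknown.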
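Further: spheroids exposed to compounds for seven days before readout.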
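Wherever viability, T/C is given: luminescence viability expressed relative to DMSO vehicle wells set as 100%.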

C[C@@H](NC(=O)c1ncnc(N)c1Cl)c1ncc(C(=O)Nc2cc(C(F)(F)F)c(Cl)cn2)s1 + C=CC(=O)N1CCN(c2nc(OCC3CCCN3C)nc3c(F)c(-c4nc(N)cc(C)c4C(F)(F)F)c(Cl)cc23)C(C)C1 was tested. Which IC50 (second compound 0.00316 µM) did it give?
Its IC50 is > 10 µM.

And the IC50 (second compound 0.01 µM)?
The IC50 was > 10 µM.

And the IC50 (second compound 0.0316 µM)?
Its IC50 is > 10 µM.

What about the IC50 (second compound 0.1 µM) of the same molecule?
The IC50 was > 10 µM.

What about the IC50 (second compound 0.316 µM) of the same molecule?
Its IC50 is > 10 µM.

What about the IC50 (second compound 1 µM) of the same molecule?
The IC50 was > 10 µM.

And the viability, T/C (second compound 0.00316 µM, first compound 0.0316 µM)?
The viability, T/C was 106%.

And the viability, T/C (second compound 0.00316 µM, first compound 0.1 µM)?
Its viability, T/C is 104%.

What about the viability, T/C (second compound 0.00316 µM, first compound 0.316 µM) of the same molecule?
The viability, T/C was 101%.

What about the viability, T/C (second compound 0.00316 µM, first compound 1 µM) of the same molecule?
Its viability, T/C is 86.2%.

And the viability, T/C (second compound 0.00316 µM, first compound 3.16 µM)?
Its viability, T/C is 84.7%.

What about the viability, T/C (second compound 0.00316 µM, first compound 10 µM) of the same molecule?
Its viability, T/C is 56.9%.

What about the viability, T/C (second compound 0.01 µM, first compound 0.0316 µM) of the same molecule?
Its viability, T/C is 96.1%.

And the viability, T/C (second compound 0.01 µM, first compound 0.1 µM)?
The viability, T/C was 94%.

What about the viability, T/C (second compound 0.01 µM, first compound 0.316 µM) of the same molecule?
The viability, T/C was 96.5%.

And the viability, T/C (second compound 0.01 µM, first compound 1 µM)?
Its viability, T/C is 75.8%.

What about the viability, T/C (second compound 0.01 µM, first compound 3.16 µM) of the same molecule?
The viability, T/C was 81.3%.

What about the viability, T/C (second compound 0.01 µM, first compound 10 µM) of the same molecule?
Its viability, T/C is 60.3%.

And the viability, T/C (second compound 0.0316 µM, first compound 0.0316 µM)?
The viability, T/C was 111%.

What about the viability, T/C (second compound 0.0316 µM, first compound 0.1 µM) of the same molecule?
The viability, T/C was 98.4%.

And the viability, T/C (second compound 0.0316 µM, first compound 0.316 µM)?
Its viability, T/C is 100%.

And the viability, T/C (second compound 0.0316 µM, first compound 1 µM)?
Its viability, T/C is 81.1%.

What about the viability, T/C (second compound 0.0316 µM, first compound 3.16 µM) of the same molecule?
Its viability, T/C is 75.6%.

And the viability, T/C (second compound 0.0316 µM, first compound 10 µM)?
Its viability, T/C is 59.3%.

And the viability, T/C (second compound 0.1 µM, first compound 0.0316 µM)?
The viability, T/C was 89.5%.

What about the viability, T/C (second compound 0.1 µM, first compound 0.1 µM) of the same molecule?
The viability, T/C was 92.3%.

What about the viability, T/C (second compound 0.1 µM, first compound 0.316 µM) of the same molecule?
Its viability, T/C is 101%.

And the viability, T/C (second compound 0.1 µM, first compound 1 µM)?
The viability, T/C was 92%.

And the viability, T/C (second compound 0.1 µM, first compound 3.16 µM)?
The viability, T/C was 78.5%.

And the viability, T/C (second compound 0.1 µM, first compound 10 µM)?
Its viability, T/C is 63.4%.

And the viability, T/C (second compound 0.316 µM, first compound 0.0316 µM)?
Its viability, T/C is 108%.

And the viability, T/C (second compound 0.316 µM, first compound 0.1 µM)?
The viability, T/C was 102%.

What about the viability, T/C (second compound 0.316 µM, first compound 0.316 µM) of the same molecule?
Its viability, T/C is 101%.

What about the viability, T/C (second compound 0.316 µM, first compound 1 µM) of the same molecule?
Its viability, T/C is 79.3%.

And the viability, T/C (second compound 0.316 µM, first compound 3.16 µM)?
Its viability, T/C is 83.2%.

What about the viability, T/C (second compound 0.316 µM, first compound 10 µM) of the same molecule?
Its viability, T/C is 53%.

And the viability, T/C (second compound 1 µM, first compound 0.0316 µM)?
Its viability, T/C is 100%.

What about the viability, T/C (second compound 1 µM, first compound 0.1 µM) of the same molecule?
The viability, T/C was 95.7%.

And the viability, T/C (second compound 1 µM, first compound 0.316 µM)?
The viability, T/C was 77.3%.

What about the viability, T/C (second compound 1 µM, first compound 1 µM) of the same molecule?
Its viability, T/C is 88.5%.

And the viability, T/C (second compound 1 µM, first compound 3.16 µM)?
Its viability, T/C is 63.7%.

What about the viability, T/C (second compound 1 µM, first compound 10 µM) of the same molecule?
The viability, T/C was 52.1%.
